Structures can show the parent of a compound that is named as a salt.
assay: Inhibition of pig TNAP at pH 10.4 by UV-visible spectrophotometric assay; set-up: species or system Sus scrofa

| IC50 [µM] | SMILES |
| --- | --- |
| > 800 | c1cc(-c2cn3c(n2)SCC3)cs1 |
| > 800 | c1csc(C2CN3CCSC3=N2)c1 (racemic) |
| 93 | c1ccc([C@H]2CN3CCSC3=N2)cc1 [LEVAMISOLE HYDROCHLORIDE] |
| 331 | C1=CN2CC(c3cccs3)N=C2S1 (racemic) |
| 408 | c1cc(C2CN3CCSC3=N2)cs1 (racemic) |
| 42 | C1=CN2CC(c3ccsc3)N=C2S1 (racemic) |
| > 800 | C1=C(c2ccsc2)N2CCN=C2S1 |
| > 800 | c1cc(-c2cn3ccsc3n2)cs1 |

assay: Inhibition of pig TNAP at pH 7.8 by UV-visible spectrophotometric assay; set-up: species or system Sus scrofa

| IC50 [µM] | SMILES |
| --- | --- |
| > 800 | c1cc(-c2cn3c(n2)SCC3)cs1 |
| > 800 | c1csc(C2CN3CCSC3=N2)c1 (racemic) |
| 78 | c1ccc([C@H]2CN3CCSC3=N2)cc1 [LEVAMISOLE HYDROCHLORIDE] |
| 260 | C1=CN2CC(c3cccs3)N=C2S1 (racemic) |
| 192 | c1cc(C2CN3CCSC3=N2)cs1 (racemic) |
| 84 | C1=CN2CC(c3ccsc3)N=C2S1 (racemic) |
| > 800 | C1=C(c2ccsc2)N2CCN=C2S1 |
| > 800 | c1cc(-c2cn3ccsc3n2)cs1 |

— ChEMBL document CHEMBL1759989, “Synthesis and evaluation of thiophenyl derivatives as inhibitors of alkaline phosphatase” (Bioorg Med Chem Lett, 2011)
